Values quoted from earlier work, collected in paper PMC5668067, “Phase I dose-escalation study of the c-Met tyrosine kinase inhibitor SAR125844 in Asian patients with advanced solid tumors, including patients with MET-amplified gastric cancer” (Oncotarget, 2017).

How the values were obtained:
[1] = test system: MET-amplified gastroesophageal junction, gastric, or esophageal tumors; set-up: method as in ref 16 = [16]; 16 Kwak EL LoRusso P Hamid O Janku F Kittaneh M Catenacci DV Chan E Bekaii-Saab TS Amore B Hwang YC Tang R Ngarmchamnanrith G Hong DS Clinical activity of AMG 337, an oral MET kinase inhibitor, in adu; settings: eight of 13 patients with MET-amplified tumors; cited from earlier work
[2] = test system: highly MET-amplified (MET:CEP7 >5) gastroesophageal cancers; set-up: method as in PMID 22042947; settings: cited from earlier work
[3] = test system: unselected gastric cancer patients; settings: cited from earlier work
[4] = test system: gastric or gastroesophageal junction cancer; settings: cited from earlier work

COCCOc1cnc2ccn([C@H](C)c3nnc4c(F)cc(-c5cnn(C)c5)cn34)c(=O)c2c1 [AMG 337]
partial or near complete response [1]: 62%

C[C@@H](Oc1cc(-c2cnn(C3CCNCC3)c2)cnc1N)c1c(Cl)ccc(F)c1Cl [crizotinib]
patients with tumor shrinkage [2]: two of four

COc1cc2c(Oc3ccc(NC(=O)C4(C(=O)Nc5ccc(F)cc5)CC4)cc3F)ccnc2cc1OCCCN1CCOCC1 [foretinib]
objective responses [3]: no objective responses

O=C1NC(=O)[C@@H](c2cn3c4c(cccc24)CCC3)[C@@H]1c1c[nH]c2ccccc12 [tivantinib]
objective responses [3]: no objective responses

onartuzumab: an anti-c-Met antibody
survival benefit of addition to chemotherapy ([4]; regardless of c-Met expression): no survival advantage

rilotumumab: an anti-HGF antibody
clinical benefit combined with chemotherapy ([4]; c-Met-positive gastric or gastroesophageal junction cancer): failed to show clinical benefit
